Measurements reported in PubChem BioAssay (NCI).
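Grown in 96-well plates, cells were treated for 48 hours with each compound at five concentrations. Insufficient inhibition: endpoint recorded as highest concentration tested. Abbreviation: GI50, concentration required for 50% inhibition of growth. TGI: concentration producing complete growth inhibition.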

Experiments:
Assay in all cases: NCI-60 cell line screen, 48 h
[1] = test system: HCT-116 colon
[2] = test system: HL-60(TB) leukemia
[3] = test system: HOP-62 NSCLC
[4] = test system: K-562 leukemia
[5] = test system: OVCAR-3 ovarian
[6] = test system: SF-268 CNS
[7] = test system: TK-10 renal
[8] = test system: SR leukemia

SMILES	TGI [1]	TGI [2]	TGI [3]	TGI [4]	TGI [5]	TGI [6]	TGI [7]	TGI [8]	GI50 [2]	GI50 [3]	GI50 [4]	GI50 [5]	GI50 [6]	GI50 [7]
O=C(CC(=O)C1CCOC1=O)C(=O)Nc1cccc(Cl)c1 (centres undefined)	> 100 µM	> 100 µM	> 100 µM	> 100 µM	> 100 µM	> 100 µM	> 100 µM	–	–	–	–	–	–	–
Nc1c(-c2ccccc2-c2c(N)[n+]([O-])c3ccccc3[n+]2[O-])[n+]([O-])c2ccccc2[n+]1[O-]	74.6 µM	> 31.3 µM	–	> 71.8 µM	> 100 µM	> 100 µM	> 100 µM	37.3 µM	–	–	–	–	–	–
COc1cc(/C=C2\[C@H]3c4c(c(OC)c(C)c(OC)c4OC)CC(C(=O)N2Cc2ccccc2)N3C)c(OC)c(C)c1OC	> 100 µM	36 µM	35.1 µM	62.1 µM	31.2 µM	61.3 µM	79.2 µM	74.4 µM	–	–	–	–	–	–
CCOC(=O)NC(=O)c1cn(C(CC)COC(=O)NCCCCCCNC(=O)OCC(CC)n2cc(C(=O)NC(=O)OCC)c(=O)[nH]c2=O)c(=O)[nH]c1=O (centres undefined)	> 100 µM	> 100 µM	> 100 µM	> 100 µM	> 100 µM	> 100 µM	–	–	–	–	–	–	–	–
Nc1ccccc1C(=O)/C=C/c1c(O)ccc2ccccc12	> 100 µM	> 100 µM	> 100 µM	> 100 µM	> 100 µM	> 100 µM	> 100 µM	> 100 µM	–	–	–	–	–	–
CC(C)CCC[C@@H](C)C1CCC2[C@@H]3CC=C4C[C@@H](C(=O)NCCN(C)C)CC[C@]4(C)C3CC[C@@]21C (some centres undefined)	–	> 100 µM	61.2 µM	> 100 µM	> 100 µM	> 100 µM	69.8 µM	–	–	–	–	–	–	–
COc1c(C)n(CCO)ccc1=O	> 100 µM	> 100 µM	> 100 µM	> 100 µM	> 100 µM	> 100 µM	> 100 µM	> 100 µM	–	–	–	–	–	–
Nc1nc(-c2ccc(Cl)c([N+](=O)[O-])c2)cs1	> 100 µM	> 100 µM	> 100 µM	> 100 µM	> 100 µM	> 100 µM	> 100 µM	–	–	–	–	–	–	–
Cc1ccc(C)c(N2C/C(=N\NC(=O)CC#N)C(c3nc4ccccc4s3)C(=O)C2=O)c1 (centres undefined)	> 100 µM	> 100 µM	> 100 µM	–	> 100 µM	> 100 µM	> 100 µM	> 100 µM	–	–	–	–	–	–
CC(C(=O)c1ccc(Cl)cc1)/C(=N/NC(=O)NN)C(=O)Nc1cccc(C(F)(F)F)c1 (centres undefined)	> 100 µM	> 100 µM	–	> 100 µM	> 100 µM	> 100 µM	> 100 µM	–	–	–	–	–	–	–
Cc1[nH]c2ccccc2c1C1Cc2ccccc2N1C(=O)C#Cc1ccc([N+](=O)[O-])cc1 (centres undefined)	> 100 µM	> 100 µM	> 100 µM	> 100 µM	> 100 µM	> 100 µM	> 100 µM	> 100 µM	–	–	–	–	–	–
CC(C)(C)c1ccc2c(c1)S(=O)(=O)Nc1ccc(Cl)cc1NS(=O)(=O)c1cc(C(C)(C)C)ccc1OCCOCCOCCO2	> 100 µM	> 100 µM	> 100 µM	> 100 µM	> 100 µM	> 100 µM	> 100 µM	–	–	–	–	–	–	–
CCOP(=O)(OCC)C(C(=O)OC)C(=O)C(=O)Nc1ccc(Cl)cc1Cl (centres undefined)	> 100 µM	> 100 µM	> 100 µM	> 100 µM	> 100 µM	> 100 µM	> 100 µM	–	–	–	–	–	–	–
NC(=O)C(=O)CC(=O)c1ccccc1NC1=CC(=O)C(=O)c2ccccc21	> 100 µM	> 76.6 µM	> 100 µM	> 100 µM	> 100 µM	> 85.7 µM	> 100 µM	–	–	–	–	–	–	–
CC(C)=C1CCC(CN(C)C)C1=O (centres undefined)	30.3 µM	15.6 µM	–	31 µM	31.7 µM	97.3 µM	31 µM	36.5 µM	–	–	–	–	–	–
O=C(N/C(=C\c1ccc([N+](=O)[O-])cc1)c1nc2ccccc2[nH]1)c1ccccc1	> 100 µM	> 100 µM	> 100 µM	> 100 µM	–	> 100 µM	> 100 µM	–	–	–	–	–	–	–
CCOCN1COCN(C)C1=O	> 100 µM	–	> 100 µM	> 100 µM	> 100 µM	> 100 µM	> 100 µM	–	–	–	–	–	–	–
CN(C(=O)c1ccc([N+](=O)[O-])cc1)c1ccccc1	> 100 µM	–	> 100 µM	> 10 µM	> 100 µM	> 100 µM	–	–	–	–	–	–	–	–
O=[N+]([O-])c1cccc(C2=NOC(C3CCCCC3)C2)c1 (centres undefined)	> 100 µM	> 100 µM	> 100 µM	> 100 µM	> 100 µM	> 100 µM	> 100 µM	–	–	–	–	–	–	–
c1coc(-c2c3ccc(=[N+]4CCCCC4)cc-3oc3cc(N4CCCCC4)ccc23)c1	–	0.468 µM	0.435 µM	> 100 µM	0.126 µM	0.472 µM	0.382 µM	–	0.0921 µM	0.0905 µM	0.0541 µM	0.033 µM	0.0667 µM	0.036 µM
Cc1cc2c(c(C(N)=O)c1C)-c1ccccc1C2=O	> 100 µM	> 100 µM	> 100 µM	> 100 µM	> 100 µM	> 100 µM	> 100 µM	–	–	–	–	–	–	–
